# Measurements taken from PMC7586344, “Discovery of Novel pERK1/2- or β-Arrestin-Preferring 5-HT1A Receptor-Biased Agonists: Diversified Therapeutic-like versus Side Effect Profile” (Journal of Medicinal Chemistry, 2020).
# Key:
# Assay in all cases: Off-target binding screen
# [1] = target: T1, H4 (Homo sapiens, UniProt Q9H3N8); conditions: 1000 nM, read-out: % Inhibition of Control Specific Binding
# T1 construct: Eurofins Pharma Discovery Services (contract assay)
# [2] = target: T2, D1 (Homo sapiens, UniProt P21728); conditions: read-out: % Inhibition of Control Specific Binding; for inhibition at 1 µM: 1000 nM
# T2 construct: Eurofins Pharma Discovery Services (contract assay)
# T2 sequence (P21728 whole entry): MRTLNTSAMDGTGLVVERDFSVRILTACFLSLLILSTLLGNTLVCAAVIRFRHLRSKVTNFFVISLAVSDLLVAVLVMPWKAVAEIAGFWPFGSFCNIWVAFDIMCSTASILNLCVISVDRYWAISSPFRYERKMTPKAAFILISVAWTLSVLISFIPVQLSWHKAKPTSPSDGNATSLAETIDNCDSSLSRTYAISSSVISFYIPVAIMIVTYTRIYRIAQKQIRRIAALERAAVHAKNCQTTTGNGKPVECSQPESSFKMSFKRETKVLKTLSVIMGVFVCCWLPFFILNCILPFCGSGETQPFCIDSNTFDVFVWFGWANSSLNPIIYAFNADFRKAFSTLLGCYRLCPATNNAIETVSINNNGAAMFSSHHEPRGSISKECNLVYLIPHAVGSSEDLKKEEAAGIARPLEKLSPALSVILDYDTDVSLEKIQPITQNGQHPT
# [3] = target: T3, α2C (Homo sapiens, UniProt P18825); conditions: read-out: % Inhibition of Control Specific Binding; for inhibition at 0.001 µM: 1 nM; for inhibition at 0.01 µM: 10 nM; for inhibition at 0.1 µM: 100 nM; for inhibition at 1 µM: 1000 nM
# T3 construct: Eurofins Pharma Discovery Services (contract screen)
# T3 sequence (P18825 1-462): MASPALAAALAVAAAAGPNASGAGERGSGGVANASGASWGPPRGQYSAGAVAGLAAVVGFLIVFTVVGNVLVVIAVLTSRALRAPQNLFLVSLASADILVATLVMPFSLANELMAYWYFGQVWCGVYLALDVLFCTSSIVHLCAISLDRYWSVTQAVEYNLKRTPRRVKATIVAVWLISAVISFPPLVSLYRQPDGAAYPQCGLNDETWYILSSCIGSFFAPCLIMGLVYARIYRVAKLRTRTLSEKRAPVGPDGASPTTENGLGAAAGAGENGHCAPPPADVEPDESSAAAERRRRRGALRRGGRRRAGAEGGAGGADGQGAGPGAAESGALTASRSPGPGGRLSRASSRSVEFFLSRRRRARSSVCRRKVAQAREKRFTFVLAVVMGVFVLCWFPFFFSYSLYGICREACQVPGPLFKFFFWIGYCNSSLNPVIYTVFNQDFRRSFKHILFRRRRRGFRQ
# [4] = target: T4, κ (KOR) (Homo sapiens, UniProt P41145); conditions: 1000 nM, read-out: % Inhibition of Control Specific Binding
# T4 construct: Eurofins Pharma Discovery Services (contract assay)
# T4 sequence (P41145 whole entry): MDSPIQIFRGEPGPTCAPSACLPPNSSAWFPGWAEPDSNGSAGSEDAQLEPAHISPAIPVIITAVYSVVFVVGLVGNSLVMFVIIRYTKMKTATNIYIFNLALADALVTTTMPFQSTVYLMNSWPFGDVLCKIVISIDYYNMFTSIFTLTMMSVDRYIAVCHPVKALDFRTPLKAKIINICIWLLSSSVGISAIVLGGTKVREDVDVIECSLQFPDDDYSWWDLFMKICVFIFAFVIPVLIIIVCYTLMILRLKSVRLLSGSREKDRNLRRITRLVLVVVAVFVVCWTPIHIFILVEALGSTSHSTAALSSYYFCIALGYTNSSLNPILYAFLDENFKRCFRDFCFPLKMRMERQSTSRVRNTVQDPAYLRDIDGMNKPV
# [5] = target: T5, α2A (Homo sapiens, UniProt P08913); conditions: read-out: % Inhibition of Control Specific Binding; for inhibition at 0.01 µM: 10 nM; for inhibition at 0.1 µM: 100 nM; for inhibition at 1 µM: 1000 nM
# T5 construct: Eurofins Pharma Discovery Services (contract screen)
# T5 sequence (P08913 1-465): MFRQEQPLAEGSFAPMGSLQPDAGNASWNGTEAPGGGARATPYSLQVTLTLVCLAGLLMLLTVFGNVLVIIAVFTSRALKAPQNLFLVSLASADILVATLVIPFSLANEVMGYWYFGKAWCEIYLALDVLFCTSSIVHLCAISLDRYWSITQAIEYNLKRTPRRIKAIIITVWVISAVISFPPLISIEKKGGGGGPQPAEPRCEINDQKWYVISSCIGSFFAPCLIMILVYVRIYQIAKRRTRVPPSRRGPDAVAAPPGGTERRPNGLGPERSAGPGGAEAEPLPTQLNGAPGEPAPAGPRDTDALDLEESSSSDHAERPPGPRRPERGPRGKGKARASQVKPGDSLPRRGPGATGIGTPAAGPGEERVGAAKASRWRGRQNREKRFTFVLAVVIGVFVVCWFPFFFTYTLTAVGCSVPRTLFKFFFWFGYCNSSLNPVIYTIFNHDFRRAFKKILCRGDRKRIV
# [6] = target: T6, δ (DOR) (Homo sapiens, UniProt P41143); conditions: 1000 nM, read-out: % Inhibition of Control Specific Binding
# T6 construct: Eurofins Pharma Discovery Services (contract assay)
# T6 sequence (P41143 whole entry): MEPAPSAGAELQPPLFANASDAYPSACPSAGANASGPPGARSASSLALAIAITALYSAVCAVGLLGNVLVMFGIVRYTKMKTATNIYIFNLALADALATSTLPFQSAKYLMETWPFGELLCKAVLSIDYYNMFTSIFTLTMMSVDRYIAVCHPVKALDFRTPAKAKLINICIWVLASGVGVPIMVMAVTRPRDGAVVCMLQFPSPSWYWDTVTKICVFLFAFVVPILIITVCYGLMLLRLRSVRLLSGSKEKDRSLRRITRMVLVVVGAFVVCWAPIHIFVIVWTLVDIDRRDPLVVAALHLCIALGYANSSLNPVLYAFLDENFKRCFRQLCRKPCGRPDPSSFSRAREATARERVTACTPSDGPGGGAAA
# [7] = target: T7, µ (MOR) (Homo sapiens, UniProt P35372); conditions: read-out: % Inhibition of Control Specific Binding; for inhibition at 1 µM: 1000 nM
# T7 construct: Eurofins Pharma Discovery Services (contract assay)
# T7 sequence (P35372 whole entry): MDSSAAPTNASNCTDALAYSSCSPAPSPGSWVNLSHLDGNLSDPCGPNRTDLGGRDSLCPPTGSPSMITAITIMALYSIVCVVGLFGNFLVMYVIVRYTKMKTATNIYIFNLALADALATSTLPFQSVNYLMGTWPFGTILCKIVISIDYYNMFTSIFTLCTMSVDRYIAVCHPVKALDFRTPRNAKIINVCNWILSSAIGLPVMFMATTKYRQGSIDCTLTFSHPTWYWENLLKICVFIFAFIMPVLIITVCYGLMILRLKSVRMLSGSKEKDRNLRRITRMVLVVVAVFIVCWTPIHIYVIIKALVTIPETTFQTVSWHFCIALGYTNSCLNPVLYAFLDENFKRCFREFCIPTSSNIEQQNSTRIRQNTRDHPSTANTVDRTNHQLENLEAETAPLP
# [8] = target: T8, M3 (Homo sapiens, UniProt P20309); conditions: 1000 nM, read-out: % Inhibition of Control Specific Binding
# T8 construct: Eurofins Pharma Discovery Services (contract assay)
# [9] = target: T9, GABAA1 (α1,β2,γ2) (Homo sapiens, UniProt P14867+P18507+P47870); conditions: 1000 nM, read-out: % Inhibition of Control Specific Binding
# T9 construct: Eurofins Pharma Discovery Services (contract assay)
# T9 sequence (P14867 28-456): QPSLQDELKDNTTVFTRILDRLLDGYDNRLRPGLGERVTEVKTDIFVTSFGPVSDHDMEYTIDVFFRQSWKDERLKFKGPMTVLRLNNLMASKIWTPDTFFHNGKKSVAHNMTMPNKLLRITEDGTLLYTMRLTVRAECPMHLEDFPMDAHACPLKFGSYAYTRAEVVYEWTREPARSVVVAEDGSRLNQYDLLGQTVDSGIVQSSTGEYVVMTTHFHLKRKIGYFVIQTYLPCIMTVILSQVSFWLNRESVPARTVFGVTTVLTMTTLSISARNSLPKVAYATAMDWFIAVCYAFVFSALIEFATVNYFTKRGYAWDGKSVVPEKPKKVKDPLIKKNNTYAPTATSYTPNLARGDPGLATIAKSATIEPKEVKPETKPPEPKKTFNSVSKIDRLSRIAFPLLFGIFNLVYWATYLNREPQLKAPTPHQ
# T9 sequence (P47870 25-512 limits assumed): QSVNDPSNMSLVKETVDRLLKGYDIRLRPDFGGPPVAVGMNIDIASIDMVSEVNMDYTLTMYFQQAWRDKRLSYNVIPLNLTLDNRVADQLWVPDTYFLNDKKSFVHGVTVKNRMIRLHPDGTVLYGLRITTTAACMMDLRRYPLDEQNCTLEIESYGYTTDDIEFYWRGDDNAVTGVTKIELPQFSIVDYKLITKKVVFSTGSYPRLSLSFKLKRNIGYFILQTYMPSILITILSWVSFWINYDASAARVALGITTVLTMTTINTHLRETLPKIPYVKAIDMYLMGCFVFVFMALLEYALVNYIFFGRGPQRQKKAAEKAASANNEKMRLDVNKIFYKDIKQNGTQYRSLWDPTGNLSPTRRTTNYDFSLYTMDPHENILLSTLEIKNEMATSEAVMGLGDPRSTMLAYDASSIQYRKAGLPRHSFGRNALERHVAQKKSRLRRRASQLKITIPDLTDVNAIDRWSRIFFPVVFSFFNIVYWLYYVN
# T9 sequence (P18507 40-475): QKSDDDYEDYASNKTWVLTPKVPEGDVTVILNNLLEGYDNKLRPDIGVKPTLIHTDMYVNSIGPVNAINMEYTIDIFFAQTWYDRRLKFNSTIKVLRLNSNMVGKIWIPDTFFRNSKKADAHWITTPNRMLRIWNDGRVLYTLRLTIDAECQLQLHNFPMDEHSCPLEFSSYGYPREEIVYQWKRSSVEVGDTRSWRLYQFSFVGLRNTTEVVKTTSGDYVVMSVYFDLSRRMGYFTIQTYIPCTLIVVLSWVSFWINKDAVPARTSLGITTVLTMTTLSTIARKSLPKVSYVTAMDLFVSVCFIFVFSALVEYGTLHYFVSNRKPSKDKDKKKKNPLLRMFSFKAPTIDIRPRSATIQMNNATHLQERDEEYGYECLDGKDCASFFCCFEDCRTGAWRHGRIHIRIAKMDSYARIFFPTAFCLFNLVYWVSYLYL
# [10] = target: T10, NET (Homo sapiens, UniProt P23975); conditions: 1000 nM, read-out: % Inhibition of Control Specific Binding
# T10 construct: Eurofins Pharma Discovery Services
# T10 sequence (P23975 whole entry): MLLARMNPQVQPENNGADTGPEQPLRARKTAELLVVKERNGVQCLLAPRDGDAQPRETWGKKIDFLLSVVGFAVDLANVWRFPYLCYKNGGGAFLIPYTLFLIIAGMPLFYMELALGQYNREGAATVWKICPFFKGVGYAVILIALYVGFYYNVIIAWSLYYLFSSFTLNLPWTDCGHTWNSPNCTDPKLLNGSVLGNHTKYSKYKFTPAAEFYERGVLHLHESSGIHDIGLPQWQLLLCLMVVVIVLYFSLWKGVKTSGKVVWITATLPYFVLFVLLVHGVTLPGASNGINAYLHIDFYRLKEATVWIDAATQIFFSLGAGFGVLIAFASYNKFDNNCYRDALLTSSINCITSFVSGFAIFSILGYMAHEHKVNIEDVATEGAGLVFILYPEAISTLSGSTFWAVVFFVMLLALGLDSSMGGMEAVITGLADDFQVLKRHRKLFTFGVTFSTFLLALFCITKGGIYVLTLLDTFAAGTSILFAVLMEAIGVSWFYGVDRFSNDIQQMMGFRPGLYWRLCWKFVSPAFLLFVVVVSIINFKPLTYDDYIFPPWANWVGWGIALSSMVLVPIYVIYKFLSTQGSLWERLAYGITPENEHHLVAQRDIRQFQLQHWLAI
# [11] = target: T11, M2 (Homo sapiens, UniProt P08172); conditions: 1000 nM, read-out: % Inhibition of Control Specific Binding
# T11 construct: Eurofins Pharma Discovery Services (contract assay)
# T11 sequence (P08172 1-466): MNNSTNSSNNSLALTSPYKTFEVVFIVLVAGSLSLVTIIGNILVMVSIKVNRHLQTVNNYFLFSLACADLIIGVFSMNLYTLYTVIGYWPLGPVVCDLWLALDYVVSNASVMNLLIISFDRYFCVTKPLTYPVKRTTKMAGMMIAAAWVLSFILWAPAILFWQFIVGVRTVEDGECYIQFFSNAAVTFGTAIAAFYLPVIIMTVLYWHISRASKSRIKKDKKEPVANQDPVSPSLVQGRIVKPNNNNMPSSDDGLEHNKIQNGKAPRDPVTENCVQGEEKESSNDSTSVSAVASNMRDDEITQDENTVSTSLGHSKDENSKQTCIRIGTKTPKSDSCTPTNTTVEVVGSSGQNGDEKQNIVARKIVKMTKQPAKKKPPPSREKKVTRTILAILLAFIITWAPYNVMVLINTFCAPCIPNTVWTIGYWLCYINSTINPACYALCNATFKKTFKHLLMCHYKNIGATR
# [12] = target: T12, D5 (Homo sapiens, UniProt P21918); conditions: read-out: % Inhibition of Control Specific Binding; for inhibition at 1 µM: 1000 nM
# T12 construct: Eurofins Pharma Discovery Services (contract assay)
# [13] = target: T13, DAT (Homo sapiens, UniProt Q01959); conditions: 1000 nM, read-out: % Inhibition of Control Specific Binding
# T13 construct: Eurofins Pharma Discovery Services
# T13 sequence (Q01959 whole entry, species assumed): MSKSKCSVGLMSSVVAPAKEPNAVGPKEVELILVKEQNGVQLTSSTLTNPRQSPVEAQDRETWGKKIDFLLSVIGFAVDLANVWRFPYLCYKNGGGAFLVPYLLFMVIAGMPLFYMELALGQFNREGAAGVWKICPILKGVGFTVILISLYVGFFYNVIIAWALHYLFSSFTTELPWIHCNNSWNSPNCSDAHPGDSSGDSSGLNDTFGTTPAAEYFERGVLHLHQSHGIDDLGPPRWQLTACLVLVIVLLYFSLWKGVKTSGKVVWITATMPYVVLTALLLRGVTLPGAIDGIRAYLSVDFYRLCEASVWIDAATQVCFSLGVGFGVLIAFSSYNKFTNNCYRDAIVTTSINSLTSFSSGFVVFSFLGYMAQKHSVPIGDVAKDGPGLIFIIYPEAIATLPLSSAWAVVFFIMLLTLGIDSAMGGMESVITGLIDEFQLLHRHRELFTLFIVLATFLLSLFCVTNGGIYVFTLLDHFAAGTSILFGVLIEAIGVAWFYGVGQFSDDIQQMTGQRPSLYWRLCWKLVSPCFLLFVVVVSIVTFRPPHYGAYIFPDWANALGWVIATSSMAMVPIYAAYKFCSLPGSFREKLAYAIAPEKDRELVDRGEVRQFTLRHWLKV
# [14] = target: T14, M1 (Homo sapiens, UniProt P11229); conditions: 1000 nM, read-out: % Inhibition of Control Specific Binding
# T14 construct: Eurofins Pharma Discovery Services (contract assay)
# T14 sequence (P11229 1-460): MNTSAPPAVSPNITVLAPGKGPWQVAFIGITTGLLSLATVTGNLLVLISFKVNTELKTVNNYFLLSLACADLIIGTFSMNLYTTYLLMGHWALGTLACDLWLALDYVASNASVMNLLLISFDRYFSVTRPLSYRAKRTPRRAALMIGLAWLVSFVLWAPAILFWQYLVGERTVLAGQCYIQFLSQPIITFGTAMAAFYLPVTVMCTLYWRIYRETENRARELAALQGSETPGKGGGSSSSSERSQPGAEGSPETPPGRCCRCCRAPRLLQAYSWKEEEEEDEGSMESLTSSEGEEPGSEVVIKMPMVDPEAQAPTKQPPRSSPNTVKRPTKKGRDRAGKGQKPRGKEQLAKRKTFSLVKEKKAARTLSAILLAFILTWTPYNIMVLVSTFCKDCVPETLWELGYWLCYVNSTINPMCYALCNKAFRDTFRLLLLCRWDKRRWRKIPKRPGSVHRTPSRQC
# T1 sequence (Q9H3N8 whole entry): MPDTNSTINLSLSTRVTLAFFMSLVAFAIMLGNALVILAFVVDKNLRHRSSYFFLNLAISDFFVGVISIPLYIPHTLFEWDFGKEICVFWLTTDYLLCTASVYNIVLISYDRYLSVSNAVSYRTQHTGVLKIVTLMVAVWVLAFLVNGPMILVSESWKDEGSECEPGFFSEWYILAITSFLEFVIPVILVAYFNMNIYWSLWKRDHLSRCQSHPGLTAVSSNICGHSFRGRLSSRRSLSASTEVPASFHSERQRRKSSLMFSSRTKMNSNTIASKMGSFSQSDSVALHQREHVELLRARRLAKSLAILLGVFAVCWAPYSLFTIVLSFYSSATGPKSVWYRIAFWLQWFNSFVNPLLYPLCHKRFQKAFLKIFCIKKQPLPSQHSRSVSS
SMILES,inhibition at 1 µM [1] [%],inhibition at 1 µM [2] [%],inhibition at 0.001 µM [3] [%],inhibition at 0.01 µM [3] [%],inhibition at 0.1 µM [3] [%],inhibition at 1 µM [3] [%],inhibition at 1 µM [4] [%],inhibition at 0.01 µM [5] [%],inhibition at 0.1 µM [5] [%],inhibition at 1 µM [5] [%],inhibition at 1 µM [6] [%],inhibition at 1 µM [7] [%],inhibition at 1 µM [8] [%],inhibition at 1 µM [9] [%],inhibition at 1 µM [10] [%],inhibition at 1 µM [11] [%],inhibition at 1 µM [12] [%],inhibition at 1 µM [13] [%],inhibition at 1 µM [14] [%],further results
O=C(c1ccc(F)c(Cl)c1)N1CCC(F)(CNCCOc2ccccc2)CC1 [Compound 3],-11,30,1,18,66,92,4,-5,21,66,3,26,1,-18,-7,-20,40,-2,-2,–
"CNc1ccccc1OCCNCC1(F)CCN(C(=O)c2ccc(F)c(Cl)c2)CC1 [Compound 44, (3-Chloro-4-fluorophenyl)(4-fluoro-4-(((2-(2-(methylamino)phenoxy)ethyl)amino)methyl)piperidin-1-yl)methanone]",-11,36,–,–,–,32,-2,–,–,10,-5,22,9,-4,0,-12,29,0,-6,–
"O=C(c1ccc(F)c(Cl)c1)N1CCC(F)(CNCCOc2cccc3[nH]ccc23)CC1 [Compound 56, (4-(((2-((1H-Indol-4-yl)oxy)ethyl)amino)methyl)-4-fluoropiperidin-1-yl)(3-chloro-4-fluorophenyl)methanone]",5,89,3,18,74,–,6,-7,33,81,0,88,1,-13,5,-8,91,37,-10,inhibition at 0.01 µM ([2]; 10 nM): 12%; inhibition at 0.1 µM ([2]; 100 nM): 52%; inhibition at 0.01 µM ([7]; 10 nM): 10%; inhibition at 0.1 µM ([7]; 100 nM): 58%; inhibition at 0.001 µM ([12]; 1 nM): -10%; inhibition at 0.01 µM ([12]; 10 nM): -3%; inhibition at 0.1 µM ([12]; 100 nM): 53%
